# Data as given in EP0636146B1, “TACHYKININ ANTAGONIST TRICYCLIC COMPOUNDS, PREPARATION OF SAME AND PHARMACEUTICAL COMPOSITIONS CONTAINING SUCH COMPOUNDS” (A. MENARINI INDUSTRIE FARMACEUTICHE RIUNITE S.R.L., priority 1992, dated 1997).
# Key:
# [1] = system: neuroquinine A receptor (receptor NK-2); experiment: inhibition of NKA-induced contraction of isolated rabbit pulmonary artery; assay type: cell-based; settings: NKA 3 nM
# Protocol: The capacity of the products described in the present invention to interact with the neuroquinine A receptor as agonists or antagonists was assessed using a preparation characterized by the fact that the biological response produced by tachyquinines and correlated peptides was exclusively determined by the neuroquinine A receptor (receptor NK-2). The said preparation consisted of isolated rabbit pulmonary artery affected by a dose-dependent contraction brought about by tachyquinines (Rovero et al., Neuropeptides, 13, 263-270, 1989). The determination of the peptide activity in the test preparation was based on the use of an NKA concentration (3 nM) causing a response equal to 45% of max. response. The peptides considered herein were added to the preparation in growing concentrations. Their activity was assessed as inhibition of response to NKA.
# [2] = system: P substance receptor (receptor NK-1); experiment: inhibition of SP methyl ester-induced contraction of isolated guinea pig ileum; assay type: cell-based; set-up: dose or concentration left out as unconfirmed; settings: SP methyl ester 10 nm
# Protocol: The capacity of the products described herein to interact with the P substance receptor (receptor NK-1) was assessed through an in vitro test, where the biological response produced by tachyquinines and correlated peptides was exclusively determined by the P substance receptor. The test preparation consisted of isolated guinea pig ileum affected by a dose-dependent contraction brought about by tachyquinines (Lee et al., Schmied. Arch. Pharmacol., 318, 281-287, 1982). The determination of the activity of the products as per the present invention in the test preparation was based on the use of an SP methyl ester concentration (10 nm) causing a response equal to 45% of max. response (S. Dion et al., Life Sci., 41, 2269-2278, 1987). The products considered herein were added to the preparation in growing concentrations. Their activity was assessed as inhibition of response to SP with satisfactory results.
substance,measurement,setting,value
cyclo(MDWFL) [compound 1],inhibition of response to neuroquinine A,[1],100%
same,inhibition of response to SP methyl ester,[2],100%
